Molecular target: MDM2 (Homo sapiens, UniProt Q00987)
Test: MDM2 binding screen of Libraries 3 and 4: displacement of fluorescent probe F-M8 at 750 nM macrocycle
Conditions: Panel b, Library 3: 63 scaffolds combinatorially acylated with 15 carboxylic acids at 30 picomole scale; displacement of fluorescent peptide probe; macrocycle 750 nM
Procedure, shortened: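 Competition with nutlin-3a was run using the fluorescein conjugate. Library members came from scaffolds reacted 6 h at room temperature with carboxylic acids (20 equiv.), HBTU and DABCO in DMSO. Quenching was overnight in Tris-Cl pH 7.4 buffer with 0.01% Tween20.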

Chain of MDM2 (Q00987 whole entry): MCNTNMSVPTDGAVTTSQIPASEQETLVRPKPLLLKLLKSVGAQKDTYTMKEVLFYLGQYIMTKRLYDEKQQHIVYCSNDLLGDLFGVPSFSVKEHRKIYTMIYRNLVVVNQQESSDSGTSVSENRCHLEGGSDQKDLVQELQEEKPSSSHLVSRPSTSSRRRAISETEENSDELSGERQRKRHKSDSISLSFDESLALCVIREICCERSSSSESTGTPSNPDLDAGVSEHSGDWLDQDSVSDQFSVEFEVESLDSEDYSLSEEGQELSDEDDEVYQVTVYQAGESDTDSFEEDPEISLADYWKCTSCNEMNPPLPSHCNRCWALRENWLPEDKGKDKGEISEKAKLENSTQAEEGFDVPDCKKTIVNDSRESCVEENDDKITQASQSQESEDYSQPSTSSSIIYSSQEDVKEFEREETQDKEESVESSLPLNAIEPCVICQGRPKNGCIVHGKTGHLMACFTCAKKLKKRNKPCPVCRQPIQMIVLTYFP

Row | Structure (SMILES) | fraction of fluorescent probe displaced
1 | CC(Oc1cccc(Cl)c1)C(=O)NC[C@H]1NC(=O)[C@@H]2CN(CCO2)C(=O)CCSSCCNC(=O)[C@H](Cc2cccc3ccccc23)NC1=O (stereo partly drawn) [X-Cop-D-Dap-1-NaI + Acid 113] | 0.008
2 | O=C(/C=C/c1ccc2ccccc2c1)NCCN1CC(=O)N[C@@H](Cc2c[nH]c3ccccc23)C(=O)NCCSSCCC(=O)N2CCO[C@@H](C2)C1=O [X-Cop-N-Aeg-Trp + Acid 112] | 0.028
3 | CN1C(=O)[C@H](CNC(=O)C2COc3ccccc3O2)NC(=O)[C@H]2CCCN(C2)C(=O)CCSSCCNC(=O)[C@@H]1Cc1c[nH]c2ccccc12 (stereo partly drawn) [X-Nip-Dap-NMe-Trp + Acid 115] | -0.012
4 | Cn1cc(C[C@@H]2NC(=O)[C@H](CNC(=O)c3ccc(Cl)s3)NC(=O)[C@H]3CCCN(C3)C(=O)CCSSCCNC2=O)c2ccccc21 [X-Nip-Dap-Me-Trp + Acid 14] | 0.028
5 | CN1C(=O)CN(CCNC(=O)c2ccc(Cl)cc2)C(=O)C2CN(CCO2)C(=O)CCSSCCNC(=O)C1Cc1c[nH]c2ccccc12 (centres unmarked) [X-Cop-N-Aeg-NMe-Trp + Acid 25] | 0.021
6 | O=C(/C=C/c1ccc2ccccc2c1)NCCN1CC(=O)N[C@@H](Cc2c[nH]c3cc(Cl)ccc23)C(=O)NCCSSCCC(=O)N2CCC[C@@H](C2)C1=O [X-Nip-N-Aeg-Cl-Trp + Acid 112] | 0.00133
7 | O=C(/C=C/c1ccc2ccccc2c1)NC[C@@H]1NC(=O)[C@H]2CCCN(C2)C(=O)CCSSCCNC(=O)[C@H](Cc2cccc3ccccc23)NC1=O [X-Nip-Dap-1-NaI + Acid 112] | 0.095
8 | O=C1CN(CCNC(=O)c2ccc3ccccc3c2)C(=O)[C@@H]2CN(CCO2)C(=O)CCSSCCNC(=O)[C@H](Cc2c[nH]c3cc(Cl)ccc23)N1 [X-Cop-N-Aeg-Cl-Trp + Acid 107] | 0.00455
9 | Cn1cc(C[C@@H]2NC(=O)[C@H](CNC(=O)C3COc4ccccc4O3)NC(=O)[C@H]3CCCN(C3)C(=O)CCSSCCNC2=O)c2ccccc21 (stereo partly drawn) [X-Nip-Dap-Me-Trp + Acid 115] | 0.028
10 | Cn1cc(C[C@@H]2NC(=O)[C@@H](CNC(=O)c3ccc(Cl)s3)NC(=O)[C@H]3CCCN(C3)C(=O)CCSSCCNC2=O)c2ccccc21 [X-Nip-D-Dap-Me-Trp + Acid 14] | 0.008
11 | Cn1cc(C[C@@H]2NC(=O)[C@@H](CNC(=O)/C=C/c3ccc(OCc4ccccc4)cc3)NC(=O)[C@H]3CCCN(C3)C(=O)CCSSCCNC2=O)c2ccccc21 [X-Nip-D-Dap-Me-Trp + Acid 110] | 0.008
12 | O=C(/C=C/c1ccc(OCc2ccccc2)cc1)NC[C@H]1NC(=O)[C@H]2CCCN(C2)C(=O)CCSSCCNC(=O)[C@@H](Cc2c[nH]c3ccccc23)NC1=O [X-Nip-D-Dap-D-Trp + Acid 110] | -0.012
13 | O=C(/C=C/c1ccc2ccccc2c1)NC[C@H]1NC(=O)[C@@H]2CN(CCO2)C(=O)CCSSCCNC(=O)[C@@H](Cc2c[nH]c3ccccc23)NC1=O [X-Cop-D-Dap-D-Trp + Acid 112] | 0.021
14 | CN1C(=O)CN(CCNC(=O)c2ccc(Cl)cc2)C(=O)C2(CC2)CNC(=O)CCSSCCNC(=O)[C@@H]1Cc1c[nH]c2ccccc12 [X-Amcp-N-Aeg-NMe-Trp + Acid 25] | -0.012
15 | CN1C(=O)C(CNC(=O)c2cccc(Oc3ccccc3)c2)NC(=O)C2CN(CCO2)C(=O)CCSSCCNC(=O)C1Cc1c[nH]c2ccccc12 [X-Cop-D-Dap-NMe-Trp + Acid 111] | 0.00133
16 | O=C(/C=C/c1ccc(Cl)cc1)NCCN1CC(=O)N[C@@H](Cc2cccc3ccccc23)C(=O)NCCSSCCC(=O)N2CCC[C@@H](C2)C1=O [X-Nip-N-Aeg-1-NaI + Acid 108] | 0.021
17 | O=C(CCS(=O)(=O)c1ccccc1)NCCN1CC(=O)N[C@@H](Cc2ccc3ccccc3c2)C(=O)NCCSSCCC(=O)N2CCC[C@@H](C2)C1=O [X-Nip-N-Aeg-2-Nal + Acid 114] | 0.015
18 | CN1C(=O)[C@H](CNC(=O)/C=C/c2ccc3ccccc3c2)NC(=O)[C@H]2CCCN(C2)C(=O)CCSSCCNC(=O)[C@@H]1Cc1c[nH]c2ccccc12 [X-Nip-Dap-NMe-Trp + Acid 112] | 0.015
19 | O=C(CCS(=O)(=O)c1ccccc1)NC[C@@H]1NC(=O)[C@H]2CCCN(C2)C(=O)CCSSCCNC(=O)[C@H](Cc2c[nH]c3cc(Cl)ccc23)NC1=O [X-Nip-Dap-Cl-Trp + Acid 114] | -0.012

The next lines start with the values.

Row | fraction of fluorescent probe displaced | Structure (SMILES)
20 | 0.008 | O=C(/C=C/c1ccc(OCc2ccccc2)cc1)NC[C@H]1NC(=O)C2(CC2)CNC(=O)CCSSCCNC(=O)[C@H](Cc2c[nH]c3cc(Cl)ccc23)NC1=O [X-Amcp-D-Dap-Cl-Trp + Acid 110]
21 | 0.00133 | CC(Oc1cccc(Cl)c1)C(=O)NCC1NC(=O)C2(CC2)CNC(=O)CCSSCCNC(=O)C(Cc2c[nH]c3ccccc23)NC1=O (mixture of isomers) [X-Amcp-Dap-Trp + Acid 113]
22 | 0.035 | O=C(CCS(=O)(=O)c1ccccc1)NC[C@@H]1NC(=O)C2(CC2)CNC(=O)CCSSCCNC(=O)[C@@H](Cc2c[nH]c3ccccc23)NC1=O [X-Amcp-Dap-D-Trp + Acid 114]
23 | 0.048 | O=C1CCSSCCNC(=O)[C@H](Cc2c[nH]c3ccccc23)NC(=O)[C@H](CNC(=O)c2ccc(Cl)cc2)NC(=O)C2(CC2)CN1 [X-Amcp-Dap-Trp + Acid 25]
24 | -0.015 | O=C1CCSSCCNC(=O)[C@@H](Cc2c[nH]c3ccccc23)NC(=O)[C@H](CNC(=O)C2CC2c2ccccc2)NC(=O)C2(CC2)CN1 (stereo partly drawn) [X-Amcp-Dap-D-Trp + Acid 105]
25 | -0.00844 | O=C1CCSSCCNC(=O)[C@H](Cc2cccc3ccccc23)NC(=O)[C@H](CNC(=O)c2ccc3ccccc3c2)NC(=O)C2(CC2)CN1 [X-Amcp-Dap-1-NaI + Acid 107]
26 | -0.00533 | O=C1CCSSCCNC(=O)[C@H](Cc2c[nH]c3ccccc23)NC(=O)[C@@H](CNC(=O)c2ccc(Cl)cc2)NC(=O)C2(CC2)CN1 [X-Amcp-D-Dap-Trp + Acid 25]
27 | -0.019 | O=C1CCSSCCNC(=O)[C@H](Cc2ccc3ccccc3c2)NC(=O)[C@@H](CNC(=O)c2ccc(Cl)cc2)NC(=O)C2(CC2)CN1 [X-Amcp-D-Dap-2-Nal + Acid 25]
28 | 0.015 | O=C(NC[C@H]1NC(=O)[C@H]2CCCN(C2)C(=O)CCSSCCNC(=O)[C@H](Cc2cccc3ccccc23)NC1=O)c1ccc(Cl)cc1 [X-Nip-D-Dap-1-NaI + Acid 25]
29 | 0.008 | O=C(/C=C/c1ccc(Cl)cc1)NC[C@H]1NC(=O)C2(CC2)CNC(=O)CCSSCCNC(=O)[C@H](Cc2ccc3ccccc3c2)NC1=O [X-Amcp-D-Dap-2-Nal + Acid 108]

Same assay, conditions: Panel c, Library 4: best nine scaffolds and 15 additional carboxylic acids; displacement of fluorescent probe

Row | Structure (SMILES) | fraction of fluorescent probe displaced
30 | CCCOc1ccc(/C=C/C(=O)NC[C@@H]2NC(=O)[C@H]3CCCN(C3)C(=O)CCSSCCNC(=O)[C@H](Cc3cccc4ccccc34)NC2=O)cc1 [X-Nip-Dap-1-NaI + Acid 118] | -0.00464
31 | O=C(/C=C/c1ccc(Cl)c(Cl)c1)NC[C@@H]1NC(=O)[C@H]2CCCN(C2)C(=O)CCSSCCNC(=O)[C@H](Cc2cccc3ccccc23)NC1=O [X-Nip-Dap-1-NaI + Acid 119] | 0.0035
32 | CC(C)c1ccc(C=CC(=O)NCC2NC(=O)C3CCCN(C3)C(=O)CCSSCCNC(=O)C(Cc3c[nH]c4ccccc34)NC2=O)cc1 (stereo not drawn) [X-Nip-Dap-Trp + Acid 127] | 0.313

Source: publication PMC9250534, “Synthesis and direct assay of large macrocycle diversities by combinatorial late-stage modification at picomole scale” (Nature Communications, 2022)
